Reference: patent US20220233668A1, “GLYCOPEPTIDE VACCINE” (VICTORIA LINK LTD., priority 2019, published 2022)
Entries after “also recorded” stand apart in the source; their conditions may differ.

Columns and labels:
P. berghei sporozoites = assay: P. berghei sporozoite challenge of vaccinated mice given PbT-I cells; conditions: single vaccination; 200 P. berghei ANKA sporozoites at day 42
Protocol: The remaining mice were challenged with 200 P. berghei sporozoites at day 42 and parasitemia was measured by flow cytometry from day 6-13. […] Percentage of parasites present in red blood cells at day 7 post malaria challenge. […] Number of mice that succumbed or were protected after malaria challenge.
The remaining mice in each group were challenged with 200 P. berghei sporozoites at day 73 and parasitemia was measured at day 79, 80, 81. Mice with two consecutive days of visible parasites in the blood were culled. Mice surviving challenge with low dose sporozoites were rechallenged with 3000 sporozoites. Parasitemia was measured at days 5, 6, 7, 8 and 12 post-high-dose-challenge.
As described in Example 11, 50,000 PbT-I.GFP cells were transferred into recipient C57BL/6 mice. […] Organs were harvested from mice from each group at days 21-35 post vaccination and assessed for the generation of memory T cells by flow cytometry as outlined in FIG. 5. The remaining mice per group were challenged with 200 P. berghei sporozoites at day 42 and parasitemia was measured by flow cytometry at days 6, 7, 8 and 13. […]
As described in Example 12, 50,000 PbT-I.GFP cells were transferred into recipient C57BL/6 mice. […] Organs were harvested from mice from each group at days 21 post vaccination and assessed for the generation of memory T cells by flow cytometry as outlined in FIG. 5. […]

PbT-I liver TRM cells = assay: Prime-and-trap vaccination with CpG or α-GalCer as adjuvant; format: in vivo, C57BL/6 mice; conditions: adjuvant with αClec9a-NVY plus rAAV-NVY; 50,000 PbT-I cells; liver day 35
Excerpt: The following day all mice were infected with 2.5×10^9 copies of rAAV-NVY. Spleens (A) and livers (B) were harvested from all mice 35 days later and the number of PbT-I TRM (CD69^+CD62L^low), TEM (CD69−CD62L^low) and TCM (CD69−CD62L^high) cells were enumerated by flow cytometry.
As illustrated above, prime-and-trap vaccination using CpG as an adjuvant was very effective at inducing liver TRM cells. To test whether CpG adjuvant might be substituted by α-GalCer, we compared prime-and-trap using CpG versus α-GalCer, (FIG. 3). C57BL/6 mice were injected with 50,000 naïve PbT-I T cells to track responses and were then vaccinated with the anti-Clec9A-NVY fusion protein together with either CpG or α-GalCer as adjuvant plus rAAV-NVY (SEQ ID NO: 15).

NKT cells = assay: NKT cell expansion and activation by NVY conjugates; format: in vivo, C57BL/6 mice; conditions: 0.135 nmol, day 3
Excerpt: Lymphocytes were stained with monoclonal antibodies for: CD49a (Ha31/8), NK1.1 (PK136) from BD (North Ryde, NSW, Australia), CD8a (53-6.7), KLRG1 (2F1), Ly5.1 (A20), Ly5.1 (104), CD8a (53-6.7), CD44 (IM7), Ly6C (HK1.4), TCRβ (H57-597), CXCR6 (SA051D1), CXCR3 (CXCR3-173), CX3CR1 (SA011F11), from Biolegend (Australian Biosearch, Karrinyup, WA. Australia), and CD62L (MEL-14), CD101 (Moushi101) and CD69 (H1.2F3), from eBioscience (Jomar Life Research, Scoresby, VIC, Australia). Dead cells were excluded by propidium iodide staining or far red live/dead fixable dye (ThermoFisher). In some experiments cells were stained with an α-GalCer (PBS-44—a gift from Prof. Paul Savage, Brigham-Young University, UT, USA)-loaded CD1d tetramer produced in-house at 4° C. for 30 min, washed, and further antibody staining was conducted for 10 min at 4° C. Antibodies used were for: CD3 (17A2), CD45R/B220 (RA3-6B2), NK1.1 (PK136), CD69 (H1.2F3), all from BioLegend (CA, USA). The viability dye used was DAPI (Invitrogen, NZ). Single-color positive control samples were used to adjust compensation and cells were analyzed by flow cytometry on a LSR Fortessa (BD Biosciences), or LSRII SORP using Flowjo software (Tree Star Inc.).

[1] = tested on: epitope-specific CD8+ T cell response; assay: PfRPL677-85-specific response in spleen by ELISpot after peptide immunization of HHD mice; format: in vivo; conditions: peptide with anti-CD40 mAb and poly IC, spleen day 7
Protocol: HHD mice, which express human HLA-A*02:01 and lack expression of murine MHC class molecules, were immunized with […] anti-CD40 mAb+[…] poly IC+[…] of PfRPL677-85 peptide ([…]) (SEQ ID NO: 18), or no peptide. 7 days later, PfRPL677-85-specific responses were measured in the spleen by ELISpot, by restimulating with the same peptide. Data were analysed using two-way ANOVA; Number of experiments=2, number of mice=3-4.
Having characterized PBANKA 1351900 (60S ribosomal protein L6-2, putative) RPL6 as a promising antigen in P. berghei, we sought to identify potential human-relevant antigens in its P. falciparum ortholog (PF3D7 1338200, also known as PF13 0213). To this extent, we used the Immune Epitope Database (IEDB: https://www.iedb.org/) epitope prediction resource (Vita, R. et al. 2019) to search for peptides within P. falciparum RPL6 that were capable of binding HLA-A*02:01; a common allele.

Compound | protection after malaria challenge (P. berghei sporozoites) | liver TRM cell numbers in prime-and-trap setting (PbT-I liver TRM cells) | expansion of NKT cells (numbers in liver and spleen) (NKT cells) | activation of NKT cells (CD69, NK1.1) (NKT cells; liver and spleen) | epitope-specific CD8+ T cell response [1]
CCCCCCCCCCCCCCCCCCCCCCCCCC(=O)N[C@@H](CO[C@H]1O[C@H](CO)[C@H](O)[C@H](O)[C@H]1O)[C@H](O)[C@H](O)CCCCCCCCCCCCCC [α-GalCer, N-((2S,3S,4R)-3,4-Dihydroxy-1-(((2S,3R,4S,5R,6R)-3,4,5-trihydroxy-6-(hydroxymethyl)tetrahydro-2H-pyran-2-yl)oxy)octadecan-2-yl)hexacosanamide] | no mice were protected | gave a much poorer liver TRM cell response; also recorded: does not generate large numbers of liver TRM cells; also recorded: did not produce high numbers of liver TRM cells | more efficient at expanding NKT cells than V.S.NVYLP | more potently activated NKT cells when compared to V.S.NVYLP | –
ILNSGLLAV | – | – | – | – | triggered an epitope-specific CD8^+ T cell response
